Data reported in patent publication EP0101641A2, “Sulfonylamino-aza-bicyclo-alkyl derivatives” (BEECHAM GROUP PLC, priority 1982, dated 1984).

Key:
Type in all cases: in vivo
vomiting response = experiment: Anti-emetic activity in the dog (apomorphine-induced vomiting); design: key to Anti-emetic: A = active; IA = inactive; conditions: for Anti-emetic: at 0.1 mg/kg s.c., 30 minutes before apomorphine HC1 0.1 mg/kg s.c.; for ED50: Canis lupus familiaris, sc, s.c. 30 minutes before apomorphine HC1 0.1 mg/kg s.c.
Experimental: Anti-emetic activity in the dog
Compounds were administered subcutaneously 30 minutes prior to administration of a standard dose of apomorphine HC1 (0.1 mg/kg subcutaneously) and the vomiting response compared to that obtained when the same animals were dosed with apomorphine HC1 and vehicle only.

intragastric pressure = experiment: Increase in intragastric pressure (peripheral dopamine blockade) in conscious restrained rats; design: key: A = active; IA = inactive; conditions: rat
Experimental: Increase in intragastric pressure - peripheral dopamine blockade
Intragastric pressure changes were recorded from previously starved conscious but restrained rats using a saline filled catheter inserted into the lumen of the stomach via a permanent gastric fistula. The catheter was connected to a physiological pressure transducer and pressure changes recorded on a hot wire pen recorder. In each animal a pre-dose period of 40 minutes was allowed to obtain a measure of spontaneous activity. An index of activity was obtained by measuring the average height of pressure waves during 10 minute periods. Values for 4 such periods were obtained during assessment of spontaneous activity and for 40 minute period after administration of compound. Student's "T" test was applied to the difference in average values obtained for spontaneous and post compound activity.

Dopamine Receptor = experiment: Inhibition of apomorphine induced climbing in the mouse (central dopamine receptor blocking activity); design: key to CNS (Climbing): A = active; IA = inactive; conditions: apomorphine 1mg/kg s.c.

Row | Compound | Anti-emetic (vomiting response) | IG Pressure (Basal) (intragastric pressure; at 1.0 mg/kg s.c.) | ED50 (vomiting response) | CNS (Climbing) ED50 (Dopamine Receptor) | CNS (Climbing) (Dopamine Receptor; at 10 mg/kg s.c.) | CNS (Climbing) (Dopamine Receptor; at 50 mg/kg s.c.) | IG Pressure (Basal) (intragastric pressure; at 5.0 mg/kg s.c.)
1 | 5-hlethanesu-lphonylamido-2-rnethoxy-3-methyl-N-[3a-[8-benzyl-8-azabicyclo(3.2.1)octyl}]benzamide [Compound 10] | A at 0.1 | A at 1.0 | – | – | – | – | –
2 | COc1cc(NS(C)(=O)=O)c(Cl)cc1C(=O)N[C@@H]1C[C@H]2CC[C@@H](C1)N2Cc1ccccc1 [Compound 1, 4-MethanGsulphonamJdo-5-ch3oro-2-methoxy-N-[3P-(8-benzyl-8-azabicyclo{3.2.1)octyl)]benzainide] | – | A at 1.0 | 0.02 mg/kg | ED50 0.2 mg/kg s.c. | – | – | –
3 | COc1cc(NS(C)(=O)=O)ccc1C(=O)N[C@@H]1C[C@H]2CC[C@@H](C1)N2Cc1ccccc1 [Compound 2, 4-methanesulphonamido-2-methoxy-N-[3β-(8-benzyl-8-azabicyclo(3.2.1)octyl)]benzamide] | – | IA at 1.0 | 0.1 mg/kg | – | A at 10 | – | –
4 | COc1cc(NS(C)(=O)=O)c(S(C)(=O)=O)cc1C(=O)N[C@@H]1C[C@H]2CC[C@@H](C1)N2Cc1ccccc1 [Compound 6, 4-Methanesulphonamido-2-methoxy-5-methylsulphonyl-N-[3β-{8-benzy1-8-azabicyclo(3.2.1)octyl)]benzamide] | A at 0.1 | – | – | – | – | IA at 50 | IA at 5.0
